Measurements: patent publication US20100160391A1, “Substituted Aminopyridines as Fluorescent Reporters for Amide Hydrolases” (priority 2006, published 2010)
Marks after values point to notes of the source that are not given here.

Key:
[1] = target: T1, fatty acid amide hydrolase (FAAH) (Homo sapiens, UniProt O00519); assay: Kinetic study of FAAH toward substrates; type: biochemical
T1 construct: made in house; host or cells: Trichoplusia ni High Five cells infected with recombinant baculovirus Ac-hFAAH; microsomal fraction
T1 sequence (O00519 1-579): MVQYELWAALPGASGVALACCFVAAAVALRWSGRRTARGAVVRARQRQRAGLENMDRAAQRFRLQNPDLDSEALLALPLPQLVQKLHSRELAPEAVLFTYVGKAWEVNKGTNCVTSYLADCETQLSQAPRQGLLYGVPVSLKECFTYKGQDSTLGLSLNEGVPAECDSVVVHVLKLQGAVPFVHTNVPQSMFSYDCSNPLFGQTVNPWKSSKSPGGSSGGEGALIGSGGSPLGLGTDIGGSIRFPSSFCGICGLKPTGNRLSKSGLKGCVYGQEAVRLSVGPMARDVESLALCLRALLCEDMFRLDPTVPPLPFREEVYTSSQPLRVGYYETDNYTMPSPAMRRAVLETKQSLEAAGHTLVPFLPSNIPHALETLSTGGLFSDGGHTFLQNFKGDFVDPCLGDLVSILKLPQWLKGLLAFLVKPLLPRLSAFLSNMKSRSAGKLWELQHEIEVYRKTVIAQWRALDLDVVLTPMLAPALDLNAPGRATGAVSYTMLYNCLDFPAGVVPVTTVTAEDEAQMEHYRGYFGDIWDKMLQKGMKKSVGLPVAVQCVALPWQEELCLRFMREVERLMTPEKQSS
Description: (§1) Preparation of recombinant human FAAH. Transgenic expression of the human FAAH in a baculovirus system was performed by following the method described in Nishi et al., Arch. Biochem. Biophys., 445:115-123 (2006). The cDNA encoding human FAAH (GenBank Accession No. NM_001441) was amplified by PCR using a human liver cDNA library (Invitrogen; Carlsbad, Calif.) as a template. The primer pair was 5′-[…]-3′ and 5′-[…]-3′. BglII and EcoRI endonuclease sites (underlined) were incorporated just upstream of the start codon and downstream of the stop codon of the coding sequence of FAAH, respectively. The PCR products were cloned into a pCR2.1 vector (Invitrogen) and the nucleotide sequence was verified by DNA sequencing. The cDNA fragments were then excised and directionally ligated to the BglII and EcoRI sites of the baculovirus transfer vector pAcUW21 (Lopez-Ferber et al., Baculovirus transfer vectors, in “Baculovirus Expression Protocols,” Richardson (Ed.), pp 25-63, Humana Press, Totowa, N.J., 1995). Recombinant baculoviruses harboring the human FAAH gene, Ac-hFAAH, were generated by co-transfection of Spodoptera frugiperda-derived Sf21 cells with the recombinant transfer vector plasmid and Bsu36I-cleaved BacPAK6 viral DNA (Clontech Laboratories; Mountain View, Calif.) as described in O'Reilly et al., Baculovirus Expression Vectors: A Laboratory Manual, Oxford University Press, New York, 1992. Trichoplusia ni-derived High Five cells (1×10^6 cells/ml) were inoculated with a high titer of Ac-hFAAH. At 72 hours post-infection, the infected cells were harvested by centrifugation at 2,000×g for 20 min at 4° C. and suspended in 50 mM Tris-HCl (pH 8.0) containing 150 mM NaCl, 1 mM EDTA, 1 μM pepstatin, 100 μM leupeptin, and 0.1 mg/ml aprotinin. The cell suspension was then homogenized using a Polytron homogenizer and centrifuged at 10,000×g for 20 min at 4° C. The microsomal fraction was collected by ultracentrifugation of the supernatant at 100,000×g for 60 min at 4° C. The pellet was resuspended in 20 mM Tris-HCl (pH 8.0) containing 10% (w/v) glycerol and 1% (w/v) Triton-X 100 and stored at −80° C. until use.
Kinetic study. The kinetic assays were also performed as described above for the sensitivity assay. Briefly, a total volume of 201 μl contained 0.1 M sodium phosphate buffer (pH 8.0) (190 μl) with 1% glycerol and 0.1% Triton-X 100, protein solution (10 μl), and substrate solution (1 μl). The protein content was 0.67 μg per well (201 μl). The concentration of substrate (13) in DMSO was 200, 100, 50, 25, 12.5, 6.25, 3.13, 1.56, or 0.78 μM. Similarly, the concentration of substrate (17) in DMSO was 100, 50, 25, 12.5, 6.25, 3.13, 1.56, 0.78, or 0.39 μM. Four replicates were applied for each concentration. Reported kinetic data (km and Vmax) were analyzed by the SigmaPlot Enzyme Kinetics software (2001) using the Michaelis-Menten equation for all concentrations.

[2] = target: T2, microsomal fatty acid amide hydrolase (FAAH) (Homo sapiens, UniProt O00519); assay: Lowest detection limits of microsomal FAAH toward colorimetric and fluorescent substrates; type: biochemical
T2 construct: made in house; host or cells: Trichoplusia ni High Five cells infected with recombinant baculovirus Ac-hFAAH; microsomal fraction
T2 sequence (O00519 1-579): T1 sequence (O00519 1-579)
Description: as §1
Comparison of the lowest detection limits of protein concentration of FAAH toward colorimetric and fluorescent substrates. In general, all assays were performed in 96-well styrene flat-bottom microtiter plates with a Spectra Max M2 spectrophotometer at 37° C. for […]. The total volume of each well was 201 μl consisting of 0.1 M sodium phosphate buffer (pH 8.0) (190 μl) containing 1% glycerol and 0.1% Triton-X 100, stock or diluted protein solution (10 μl), and the substrate solution (1 μl) in ethanol (final concentration 200 μM for 10, 11, 13 or 14) or in DMSO (final concentration 25 μM for 12, 15, or 16; 50 μM for 17). The lowest detection limits of microsomal fatty acid amide hydrolase (FAAH) by substrates were determined by the fact that the signal at 10 min after kinetic measurements are equal to or over three times the noise or basal line at 0 min. Colorimetric substrate (16) assays were performed in clear 96-well microtititer plates using an absorbance wavelength at 382 nm. The fluorescent substrates containing 5-amino-2-methoxypyridine (e.g., 10, 13) were measured at an excitation wavelength (302 nm), emission wavelength (396 nm), and auto cutoff wavelength (325 nm). Similarly, the fluorescent substrates containing 5-amino-2-methoxy-6-methylpyridine (e.g., 11, 14, and 17) were measured at an excitation wavelength (304 nm), emission wavelength (392 nm), and an auto cutoff wavelength of 325 nm. In addition, an excitation wavelength (366 nm), emission wavelength (496 nm), and auto cutoff wavelength (495 nm) were used for the substrates (e.g., 12 and 15) containing 7-amino-4-trifluoromethyl coumarin.

[3] = pH 8.0, 37° C., 0.67 μg protein per well, Michaelis-Menten

## CCCCCCCC(=O)Nc1ccc(OC)nc1 [Compound 13, N-(6-methoxypyridin-3-yl) octanamide]
[1]; Vmax/Km of substrate over that of oleamide (5.5 × 10^−2)
  Selectivity ratio: 74.5
[1]; [3]
  Km: 74.9 µM
  Vmax: 305 nmol/min/mg
[1]; saturating substrate concentration
  difference in Vmax between (13) and (17): 8 fold
[2]; 0 min, protein 0.11 (13), 0.67 (14), 100 (15), 0.5 (17) μg/well, 200 μM (13),(14), 25 μM (15), 50 μM (17)
  base line, Average: 302 RFU
[2]; 10 min, protein 0.11 (13), 0.67 (14), 100 (15), 0.5 (17) μg/well, 200 μM (13),(14), 25 μM (15), 50 μM (17)
  signal, Average: 1091* RFU
[2]; Table 2
  difference between (13) and (17) in limit of protein detection: 5 times
[2]; pH 8.0, 37° C., 200 μM (13), (14), 50 μM (17)
  Protein, lowest detection limit of microsomal FAAH (signal at 10 min ≥ three times base line): 0.11 μg/200 μ′
[2]; signal at 10 min equal to three times base line
  lowest detection limit of protein: 0.55 μg protein/ml
